Measured values: BindingDB's records for doi:10.1016/j.bioorg.2016.10.001 (Jamia Millia Islamia (A Central University), 2016)

Biological target: DNA topoisomerase 2-alpha (Homo sapiens, UniProt P11388)
Test: Topoisomerase IIα Relaxation Assay
Conditions: pH 7.9
Protocol: Relaxation of negatively supercoiled plasmid DNA by human topoisomerase IIα was assayed in 20 µL of reaction buffer (10 mM Tris-HCl, pH 7.9, 150 mM NaCl, 0.1% BSA, 0.1 mM spermidine, 5% glycerol and ATP) containing 250 ng of supercoiledpHOT1 plasmid DNA and 1 unit of enzyme. After incubation at 37 °C for 30 min, the reactions were terminated and analysed by agarose gel electrophoresis. The ethidium bromide-stained gel was photographed over UV light for densitometry analysis.

Sequence of DNA topoisomerase 2-alpha (P11388 whole entry): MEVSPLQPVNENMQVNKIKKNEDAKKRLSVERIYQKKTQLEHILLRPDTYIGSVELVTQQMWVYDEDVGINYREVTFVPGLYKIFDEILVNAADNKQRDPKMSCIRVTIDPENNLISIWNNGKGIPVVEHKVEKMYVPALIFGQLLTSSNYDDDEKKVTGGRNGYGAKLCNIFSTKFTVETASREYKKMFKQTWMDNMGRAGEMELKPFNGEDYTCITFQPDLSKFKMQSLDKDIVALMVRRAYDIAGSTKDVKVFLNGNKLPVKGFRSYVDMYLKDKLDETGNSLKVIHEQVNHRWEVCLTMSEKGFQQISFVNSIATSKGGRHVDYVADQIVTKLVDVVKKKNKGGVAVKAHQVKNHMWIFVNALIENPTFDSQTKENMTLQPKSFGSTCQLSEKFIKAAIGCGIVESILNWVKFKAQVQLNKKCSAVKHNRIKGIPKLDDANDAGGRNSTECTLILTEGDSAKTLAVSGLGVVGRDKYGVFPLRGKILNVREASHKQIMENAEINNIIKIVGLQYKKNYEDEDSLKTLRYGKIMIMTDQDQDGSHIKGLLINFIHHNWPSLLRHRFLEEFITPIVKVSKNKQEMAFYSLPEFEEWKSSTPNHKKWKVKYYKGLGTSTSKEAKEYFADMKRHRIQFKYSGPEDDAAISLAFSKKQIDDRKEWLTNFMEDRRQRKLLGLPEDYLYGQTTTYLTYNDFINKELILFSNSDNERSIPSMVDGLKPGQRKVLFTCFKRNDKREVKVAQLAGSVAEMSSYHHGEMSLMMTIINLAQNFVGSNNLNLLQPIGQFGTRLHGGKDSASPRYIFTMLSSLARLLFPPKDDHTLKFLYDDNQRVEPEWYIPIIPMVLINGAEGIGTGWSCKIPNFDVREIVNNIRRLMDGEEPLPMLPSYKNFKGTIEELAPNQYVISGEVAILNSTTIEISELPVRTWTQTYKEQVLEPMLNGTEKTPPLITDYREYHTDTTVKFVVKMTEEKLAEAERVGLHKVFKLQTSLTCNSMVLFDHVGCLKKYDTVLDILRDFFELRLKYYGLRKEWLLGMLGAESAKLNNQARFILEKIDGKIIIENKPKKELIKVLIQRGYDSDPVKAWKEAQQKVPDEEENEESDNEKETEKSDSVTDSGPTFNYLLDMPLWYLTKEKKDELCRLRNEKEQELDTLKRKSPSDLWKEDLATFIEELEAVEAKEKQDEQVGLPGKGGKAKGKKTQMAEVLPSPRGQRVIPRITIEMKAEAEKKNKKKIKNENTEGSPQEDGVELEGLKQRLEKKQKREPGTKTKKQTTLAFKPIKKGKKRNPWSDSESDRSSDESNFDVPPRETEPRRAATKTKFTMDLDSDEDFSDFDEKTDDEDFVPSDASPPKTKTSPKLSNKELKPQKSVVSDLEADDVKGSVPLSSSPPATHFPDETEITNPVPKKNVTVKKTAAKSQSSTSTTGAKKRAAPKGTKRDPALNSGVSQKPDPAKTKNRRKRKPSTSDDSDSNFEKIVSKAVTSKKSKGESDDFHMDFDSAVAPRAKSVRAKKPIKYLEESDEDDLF

Compound	IC50 [µM]
NC(=S)N1N=C(c2cccnc2)CC1c1cn(-c2ccccc2)nc1-c1ccccc1 (centres undefined) [5-(1,3-Diphenyl-1H-pyrazol-4-yl)-3-(pyridin-3-yl)-4,5-dihydropyrazole-1-carbothioamide (6a)]	245
NC(=S)N1N=C(c2cccnc2)CC1c1cn(-c2ccccc2)nc1-c1cccc([N+](=O)[O-])c1 (centres undefined) [5-(3-(3-Nitrophenyl)-1-phenyl-1H-pyrazol-4-yl)-3-(pyridin-3-yl)-4,5-dihydropyrazole-1-carbothioamide (6f)]	445
NC(=S)N1N=C(c2cccnc2)CC1c1cn(-c2ccccc2)nc1-c1ccc(Br)cc1 (centres undefined) [5-(3-(4-Bromophenyl)-1-phenyl-1H-pyrazol-4-yl)-3-(pyridin-3-yl)-4,5-dihydropyrazole-1-carbothioamide (6e)]	703
NC(=S)N1N=C(c2cccnc2)CC1c1cn(-c2ccccc2)nc1-c1ccc(F)cc1 (centres undefined) [5-(3-(4-Fluorophenyl)-1-phenyl-1H-pyrazol-4-yl)-3-(pyridin-3-yl)-4,5-dihydropyrazole-1-carbothioamide (6b)]	272
CCOC(=O)C1C(=O)C=C(c2cn(-c3ccccc3)nc2-c2ccc(Cl)cc2)CC1c1cccnc1 (centres undefined) [Ethyl 4-(3-(4-chlorophenyl)-1-phenyl-1H-pyrazol-4-yl)-2-oxo-6-(pyridin-3-yl)cyclohex-3-enecarboxylate (5c)]	< 100
CCOC(=O)C1C(=O)C=C(c2cn(-c3ccccc3)nc2-c2ccc(OC)cc2)CC1c1cccnc1 (centres undefined) [Ethyl 4-(3-(4-methoxyphenyl)-1-phenyl-1H-pyrazol-4-yl)-2-oxo-6-(pyridin-3-yl)cyclohex-3-enecarboxylate (5i)]	428
CCOC(=O)C1C(=O)C=C(c2cn(-c3ccccc3)nc2-c2ccc([N+](=O)[O-])cc2)CC1c1cccnc1 (centres undefined) [Ethyl 4-(3-(4-nitrophenyl)-1-phenyl-1H-pyrazol-4-yl)-2-oxo-6-(pyridin-3-yl)cyclohex-3-enecarboxylate (5g)]	256

Next, values leading:

IC50 [µM]	Compound
457	NC(=S)N1N=C(c2cccnc2)CC1c1cn(-c2ccccc2)nc1-c1cccc(Br)c1 (centres undefined) [5-(3-(3-Bromophenyl)-1-phenyl-1H-pyrazol-4-yl)-3-(pyridin-3-yl)-4,5-dihydropyrazole-1-carbothioamide (6d)]
406	NC(=S)N1N=C(c2cccnc2)CC1c1cn(-c2ccccc2)nc1-c1ccc(Cl)cc1 (centres undefined) [5-(3-(4-Chlorophenyl)-1-phenyl-1H-pyrazol-4-yl)-3-(pyridin-3-yl)-4,5-dihydropyrazole-1-carbothioamide (6c)]
395	CCOC(=O)C1C(=O)C=C(c2cn(-c3ccccc3)nc2-c2ccc(C)cc2)CC1c1cccnc1 (centres undefined) [Ethyl 2-oxo-4-(1-phenyl-3-p-tolyl-1H-pyrazol-4-yl)-6-(pyridin-3-yl)cyclohex-3-enecarboxylate (5h)]
222	CCOC(=O)C1C(=O)C=C(c2cn(-c3ccccc3)nc2-c2ccccc2)CC1c1cccnc1 (centres undefined) [Ethyl 4-(1,3-diphenyl-1H-Pyrazol-4-yl)-2-oxo-6-(pyridin-3-yl)cyclohex-3-enecarboxylate (5a)]
< 100	CCOC(=O)C1C(=O)C=C(c2cn(-c3ccccc3)nc2-c2cccc(Br)c2)CC1c1cccnc1 (centres undefined) [Ethyl 4-(3-(3-bromophenyl)-1-phenyl-1H-pyrazol-4-yl)-2-oxo-6-(pyridin-3-yl)cyclohex-3-enecarboxylate (5d)]
< 100	CCOC(=O)C1C(=O)C=C(c2cn(-c3ccccc3)nc2-c2cccc([N+](=O)[O-])c2)CC1c1cccnc1 (centres undefined) [Ethyl 4-(3-(3-nitrophenyl)-1-phenyl-1H-pyrazol-4-yl)-2-oxo-6-(pyridin-3-yl)cyclohex-3-enecarboxylate (5f)]
< 100	CCOC(=O)C1C(=O)C=C(c2cn(-c3ccccc3)nc2-c2ccc(F)cc2)CC1c1cccnc1 (centres undefined) [Ethyl 4-(3-(4-fluorophenyl)-1-phenyl-1H-pyrazol-4-yl)-2-oxo-6-(pyridin-3-yl)cyclohex-3-enecarboxylate (5b)]
